Key:
[1] = system: Myzus persicae; assay: Myzus persicae test (cabbage leaf dip, mortality); type: in vivo; conditions: foliar, 96 h, single compound, infested cabbage leaves dipped, after 4 d
Method: (§1) The expected efficacy of a given combination of two compounds is calculated as follows (see Colby, S. R., “Calculating Synergistic and antagonistic Responses of Herbicide Combinations”, Weeds 15, pp. 20-22, 1967):
(§2) X is the efficacy expressed in % mortality of the untreated control for test compound A at a concentration of m ppm respectively m g/ha,
(§3) Y is the efficacy expressed in % mortality of the untreated control for test compound B at a concentration of n ppm respectively n g/ha,
(§4) E is the efficacy expressed in % mortality of the untreated control using the mixture of A and B at m and n ppm respectively m and n g/ha,
(§5) If the observed insecticidal efficacy of the combination is higher than the one calculated as “E”, then the combination of the two compounds is more than additive, i.e., there is a synergistic effect.
(§6) Solvent: 7 parts by weight of dimethylformamide
(§7) Emulsifier: 2 parts by weight of alkylaryl polyglycolether
To produce a suitable preparation of active compound, 1 part by weight of active compound is mixed with the stated amount of solvent and emulsifier, and the concentrate is diluted with emulsifier-containing water to the desired concentration. […]
After the specified period of time, the mortality in % is determined. […]

[2] = system: Phaedon cochleariae; assay: Phaedon cochleariae test (cabbage leaf dip, larvae mortality); type: in vivo; conditions: foliar, 96 h, single compound, dipped cabbage leaves infested with larvae, after 4 d
Method: as §1, §2, §3, §4, §5, §6, §7
To produce a suitable preparation of active compound, 1 part by weight of active compound is mixed with the stated amount of solvent and emulsifier, and the concentrate is diluted with emulsifier-containing water to the desired concentration.
Cabbage leaves (Brassica oleracea) are treated by being dipped into the preparation of the active compound of the desired concentration and are infested with larvae of the mustard beetle (Phaedon cochleariae) as long as the leaves are still moist.
After the specified period of time, the mortality in % is determined. 100% means that all the beetle larvae have been killed; 0% means that none of the beetle larvae have been killed.

SMILES	mortality at 3e-06 ppm ([1]; 0.000003 ppm) [%]	mortality at 3e-06 ppm ([2]; 0.000003 ppm) [%]	mortality at 3e-05 ppm ([2]; 0.00003 ppm) [%]	mortality at 0.16 ppm ([1]; 0.16 ppm) [%]	mortality at 20 ppm ([2]; 20 ppm) [%]
CC1=CC(O/C=C2/C(=O)OC3c4ccccc4CC23)OC1=O (centres unmarked) [Compound A]	0	0	0	–	–
O=[N+]([O-])NC1=NCCN1Cc1ccc(Cl)nc1 [Imidacloprid, reference compound]	–	–	–	10	70

From US20100137373A1, “PESTICIDAL COMPOSITION COMPRISING A STR[…] AN I[…]” (priority 2007, published 2010)
